Data set [1] addresses NsdUTPase (Nocardia seriolae, UniProt A0ABF7PKI9). In words: NsdUTPase activity assay (PPi Light inorganic pyrophosphate assay kit). Format: biochemical. Particulars: for activity improvement: NsdUTPase IC50 compared with F0414. As to the method: The in vitro catalytic activity of NsdUTPase was detected by a PPi Light inorganic pyrophosphate assay kit following manufactory’s manual. […] After 120 min of incubation at room temperature, the luminescence intensity of the reaction was measured by a microplate luminometer at 560 nm.
IC50 was determined using GraphPad Prism software 9 (GraphPad Software, San Diego, CA). All experiments were performed in triplicate, and values (±standard deviations [SD]) are shown. Significant differences were determined using Student’s t-test. *p < 0.05 (considered significant compared with control group); **p < 0.01 (considered highly significant); ***p < 0.001 (considered extremely significant).

In data set [2] the test system is N. salmonicida strain JCM4826. The data set can be described thus: anti-Nocardia activity, microplate alamar blue assay (MABA). As to conditions: two days at 25 °C; for MIC: 48 h. Type of data set: cell-based. As for the experimental part: (§1) The MABA method was used to determine the anti-Nocardia activity of compounds according to reported method[34] with modification. N. seriolae strain JCM3360, and N. salmonicida strain JCM4826 were gifted from Prof. Nien, Chung-Yi (National Central University, Taoyuan City, Taiwan), and cultured in M-196 medium (0.4% yeast extract; 1% malt extract; 0.4% dextrose) at 25 °C. Two strains were inoculated into 96-well plates at a concentration of ×10^6 CFU/mL and cultured in the medium, then different concentrations of compounds were added. After two days of incubation at 25 °C, the mixture of 20 μL 10× alamar blue and 50 μL 5% Tween-80 were added to observe the colour change. Minimum inhibitory concentration (MIC) is defined as the minimum compound concentration of the well varying from blue to pink.

In data set [3] the test system is N. seriolae strain JCM3360. Described as above. Particulars: two days at 25 °C; for MIC: 48 h. Type of data set: cell-based. As to the method: as §1
Data set [4] in a line: Cytotoxicity, CCK-8 assay. Type of data set: cell-based. As to conditions: concentration 30 µM (about 10.0 mg/L), read-out: cell viability. As for the experimental part:
The cytotoxicity of compounds 4b and 12b was determined by CCK-8 assay. A549 and Marc cells were cultured for the test. Concentrations of compounds varied from 0.03 to 30 µM. Meanwhile, 1% DMSO was used as a negative control. After incubation for 24 h, WST-8 was added. The experimental method referred to the kit instructions. All the experiments were repeated three times.
In general terms: Tetrazolium assays rely on reduction of a dye to a coloured formazan, in cell work by metabolically active cells.

Data set [5] addresses T1, NsdUTPase WT (Nocardia seriolae, UniProt A0ABF7PKI9).
T1 sequence (A0ABF7PKI9 1-166): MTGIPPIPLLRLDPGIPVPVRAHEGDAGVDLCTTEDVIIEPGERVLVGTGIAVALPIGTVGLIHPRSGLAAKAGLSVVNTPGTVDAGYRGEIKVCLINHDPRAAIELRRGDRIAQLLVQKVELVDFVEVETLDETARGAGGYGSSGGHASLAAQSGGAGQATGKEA
In words: Kd to WT NsdUTPase. Type of data set: binding, N. seriolae.

Where [6] appears, read: in vitro enzyme inhibitory activity, read-out: IC50 against NsdUTPase.
The mark [7] stands for this setting: African green monkey, Marc cells.

By IC50 is commonly meant the concentration at which inhibition is half-maximal. Broadly, the viability is the share of living cells, or the viability signal relative to a control. What is called MIC is the lowest concentration that inhibits growth of the organism. A low value points to a more susceptible organism. One may read the Kd as the free concentration of one partner at which half of the binding sites on the other are occupied at equilibrium, for simple one-to-one binding. Lower therefore signals tighter binding.

Converted amounts (≈) assume the structure as drawn. Read-outs that look alike come from different tables or passages of the source. Bounds are passed on as bounds.

“1-(Cyclopropylmethyl)-2-(4-phenoxyphenyl)-5-(trifluoromethyl)-1H-benzo[d]imidazole [12f]”: the IC50 in data set [1] (setting [6]) was over 20 µM. Besides, the “MIC N. salmonicida” value in data set [2] came to 8 µg/mL. Also, the “MIC N. seriolae” value in data set [3] worked out at 16 µg/mL.

Turning to “1-Allyl-6-fluoro-5-methyl-2-(6-phenoxypyridin-3-yl)-1H-benzo[d]imidazole [12i]”, the IC50 in data set [1] (setting [6]) turned out to be 7.84 µM. The “MIC N. salmonicida” value in data set [2] amounted to 4 µg/mL. Also, the “MIC N. seriolae” value in data set [3] was 4 µg/mL.

In data set [1], `C=CCn1c(/C=C/c2ccccc2)nc2cc(C(F)(F)F)ccc21` [4b, (E)-1-Allyl-2-styryl-5-(trifluoromethyl)-1H-benzo[d]imidazole] had an IC50 of 0.99 µM. For the same molecule, the activity improvement result in data set [1] is listed as “more than 20 fold”. The viability at 24 h, 30 µM was over 70% in data set [4] (setting [7]) and over 70% in data set [4] (human, A549 cells). Also, the MIC in data set [2] turned out to be 0.5 µg/mL (≈ 1.52 µM); in data set [3] it was 1 µg/mL (≈ 3.05 µM). This molecule also registered a Kd in data set [5] of 10.3 µM.

In the case of `C=CCn1c(/C=C/c2ccccc2)nc2c(C)cccc21` [4d, (E)-1-Allyl-4-methyl-2-styryl-1H-benzo[d]imidazole], the IC50 in data set [1] (setting [6]) was over 20 µM. Besides, the MIC in data set [2] and in data set [3] was 16 µg/mL (≈ 58.3 µM) each time.

For `C=CCn1c(/C=C/c2ccccc2)nc2cc(C#N)ccc21` [4e, (E)-1-Allyl-2-styryl-1H-benzo[d]imidazole-5-carbonitrile], the IC50 in data set [1] (setting [6]) is over 20 µM. Further, the MIC in data set [2] was 16 µg/mL (≈ 56.1 µM); in data set [3], over 50 µg/mL.

For the molecule `C=CCn1c(/C=C/c2ccc(N(C)C)cc2)nc2ccccc21` [4g, (E)-4-(2-(1-Allyl-1H-benzo[d]imidazol-2-yl)vinyl)-N,N-dimethylaniline], in data set [1] (setting [6]), the IC50 is 2.98 µM. In addition, the results for the MIC in data set [2] and in data set [3] were 16 µg/mL (≈ 52.7 µM) and over 50 µg/mL, respectively.

Turning to `C=CCn1c(/C=C/c2ccccc2)nc2cc(C(=O)c3ccccc3)ccc21` [4h, (E)-(1-Allyl-2-styryl-1H-benzo[d]imidazol-5-yl)(phenyl)methanone], in data set [1] (setting [6]), the IC50 came to 9.62 µM. Moreover, the MIC in data set [2] and in data set [3] was 8 µg/mL (≈ 22 µM) each time.

On to `C=CCn1c(/C=C/c2ccccc2OC)nc2cc(C(=O)c3ccccc3)ccc21` [4i, (E)-(1-Allyl-2-(2-methoxystyryl)-1H-benzo[d]imidazol-5-yl)(phenyl)methanone], for which the IC50 in data set [1] (setting [6]) was found to be 7.54 µM. Also, the MIC in data set [2] worked out at 4 µg/mL (≈ 10.1 µM); in data set [3], 8 µg/mL (≈ 20.3 µM).

Take `C=CCn1c(-c2ccc(Oc3ccccc3)cc2)nc2ccccc21` [8a, 1-Allyl-2-(4-phenoxyphenyl)-1H-benzo[d]imidazole]: the IC50 in data set [1] (setting [6]) worked out at 2.61 µM. Further, the MIC in data set [2] and in data set [3] was 4 µg/mL (≈ 12.3 µM) each time.

`C=CCn1c(-c2ccc(-c3ccccc3)cc2)nc2ccccc21` [8b, 2-([1,1′-Biphenyl]-4-yl)-1-allyl-1H-benzo[d]imidazole]: the MIC in data set [2] and in data set [3] was 4 µg/mL (≈ 12.9 µM) in each case.

Turning to `C=CCn1c(/C(C)=C/c2ccccc2)nc2ccccc21` [8c, (E)-1-Allyl-2-(1-phenylprop-1-en-2-yl)-1H-benzo[d]imidazole], the IC50 in data set [1] (setting [6]) is over 20 µM. The MIC in data set [2] is 4 µg/mL (≈ 14.6 µM); in data set [3] it was 8 µg/mL (≈ 29.2 µM).

Turning to `C=CCn1c(-c2cccc(Oc3ccccc3)c2)nc2ccccc21` [8d, 1-Allyl-2-(3-phenoxyphenyl)-1H-benzo[d]imidazole], the IC50 in data set [1] (setting [6]) worked out at 15.7 µM. For the same molecule, the MIC in data set [2] was 32 µg/mL (≈ 98 µM); in data set [3] it was over 50 µg/mL.

On to `C=CCn1c(-c2ccc3ccccc3c2)nc2ccccc21` [8e, 1-Allyl-2-(naphthalen-2-yl)-1H-benzo[d]imidazole], for which the IC50 in data set [1] (setting [6]) came to 10.5 µM. Besides, the MIC in data set [2] and in data set [3] was 4 µg/mL (≈ 14.1 µM) throughout.

For `C=CCn1c(-c2ccc(Oc3ccccc3)cc2)nc2cc(C(F)(F)F)ccc21` [12a, 1-Allyl-2-(4-phenoxyphenyl)-5-(trifluoromethyl)-1H-benzo[d]imidazole], the IC50 in data set [1] (setting [6]) amounted to 8.36 µM. Moreover, the MIC was 16 µg/mL (≈ 40.6 µM) in data set [2] and over 50 µg/mL in data set [3].

Turning to `C=CCn1c(-c2ccc(Oc3ccccc3)cc2)nc2cc(C)ccc21` [12b, 1-Allyl-5-methyl-2-(4-phenoxyphenyl)-1H-benzo[d]imidazole], half-maximal inhibition in data set [1] (IC50) was put at 0.7 µM. For the same molecule, the activity improvement result in data set [1] is given as “more than 20 fold”. Also, the viability at 24 h, 30 µM in data set [4] (setting [7]) is over 70%; in data set [4] (human, A549 cells) it was over 70%. The MIC in data set [2] was 1 µg/mL (≈ 2.94 µM); in data set [3], 2 µg/mL (≈ 5.87 µM). Besides, the Kd in data set [5] was 7.49 µM.

As to `C=CCn1c(-c2ccc(Oc3ccccc3)cc2)nc2cc(C(=O)c3ccccc3)ccc21` [12c, (1-Allyl-2-(4-phenoxyphenyl)-1H-benzo[d]imidazol-5-yl)(phenyl)methanone], the IC50 in data set [1] (setting [6]) was found to be 15.4 µM. The MIC in data set [2] was determined as 8 µg/mL (≈ 18.6 µM); in data set [3] it was 16 µg/mL (≈ 37.2 µM).

Take `C=CCn1c(-c2ccc(Oc3ccccc3)cc2)nc2cc(C)c(C)cc21` [12d, 1-Allyl-5,6-dimethyl-2-(4-phenoxyphenyl)-1H-benzo[d]imidazole]: the IC50 in data set [1] (setting [6]) turned out to be 3.71 µM. Also, the values for the MIC in data set [2] and in data set [3] were 4 µg/mL (≈ 11.3 µM) and 8 µg/mL (≈ 22.6 µM), respectively.

As for `C#CCn1c(-c2ccc(Oc3ccccc3)cc2)nc2cc(C(F)(F)F)ccc21` [12e, 2-(4-Phenoxyphenyl)-1-(prop-2-yn-1-yl)-5-(trifluoromethyl)-1H-benzo[d]imidazole], the IC50 in data set [1] (setting [6]) was found to be 14.8 µM. In addition, the MIC amounted to 16 µg/mL (≈ 40.8 µM) in data set [2] and 32 µg/mL (≈ 81.6 µM) in data set [3].

Consider `C=CCn1c(-c2ccc(Oc3cccnc3)cc2)nc2cc(C(F)(F)F)ccc21` [12g, 1-Allyl-2-(4-(pyridin-3-yloxy)phenyl)-5-(trifluoromethyl)-1H-benzo[d]imidazole], for which the IC50 in data set [1] (setting [6]) is over 20 µM. The MIC in data set [2] was 32 µg/mL (≈ 80.9 µM); in data set [3], over 50 µg/mL.

In the case of `C=CCn1c(-c2ccc(Oc3ccccc3)nc2)nc2cc(C(F)(F)F)ccc21` [12h, 1-Allyl-2-(6-phenoxypyridin-3-yl)-5-(trifluoromethyl)-1H-benzo[d]imidazole], in data set [1] (setting [6]), the IC50 was over 20 µM. For the same molecule, the values for the MIC in data set [2] and in data set [3] were 32 µg/mL (≈ 80.9 µM) and over 50 µg/mL, respectively.

In the case of `C=CCn1c(/C=C/c2ccccc2)nc2ccccc21` [F0414, (E)-1-Allyl-2-styryl-1H-benzo[d]imidazole, reference compound], in data set [1] (setting [6]), the IC50 is over 20 µM. In addition, the MIC worked out at 2 µg/mL (≈ 7.68 µM) in data set [2] and 8 µg/mL (≈ 30.7 µM) in data set [3].

Turning to `CS(=O)(=O)c1ccc([C@@H](O)[C@@H](CF)NC(=O)C(Cl)Cl)cc1` [Florfenicol, reference compound], the MIC in data set [2] is 16 µg/mL (≈ 44.7 µM); in data set [3], 4 µg/mL (≈ 11.2 µM).

For the molecule `CN(C)[C@@H]1C(O)=C(C(N)=O)C(=O)[C@@]2(O)C(O)=C3C(=O)c4c(O)cccc4[C@@](C)(O)[C@H]3[C@H](O)[C@@H]12` [Oxytetracycline, reference compound], the MIC in data set [2] was 4 µg/mL (≈ 8.69 µM); in data set [3], 1 µg/mL (≈ 2.17 µM).

In data set [2], `COc1cc(NS(=O)(=O)c2ccc(N)cc2)nc(OC)n1` [Sulfadimethoxine, reference compound] returned an MIC of 12.5 µg/mL (≈ 40.3 µM). Moreover, in data set [3], the MIC was over 50 µg/mL and the “MIC N. seriolae” value is over 50 µg/mL.

`Cc1ccnc(NS(=O)(=O)c2ccc(N)cc2)n1` [Sulfamerazin, reference compound]: in data set [2], the “MIC N. salmonicida” value was over 50 µg/mL. Also, the “MIC N. seriolae” value in data set [3] and in data set [3] (listed as sulfamerazin) was over 50 µg/mL throughout.

For the molecule “(E)-1-Allyl-2-styryl-1H-benzo[d]imidazol-5-yl acetate [4f]”, in data set [1] (setting [6]), the IC50 worked out at 18.3 µM. The “MIC N. salmonicida” value in data set [2] was 32 µg/mL. Besides, the “MIC N. seriolae” value in data set [3] is over 50 µg/mL.

Take “(E)-1-Allyl-2-styryl-1H-benzo[d]imidazole [4a]”: the IC50 in data set [1] (setting [6]) was 2.65 µM. In addition, the “MIC N. salmonicida” value in data set [2] stood at 2 µg/mL. Besides, the “MIC N. seriolae” value in data set [3] was determined as 4 µg/mL.

Consider “(E)-1-Allyl-2-styryl-1H-benzo[d]imidazole [4c]”, for which, in data set [1] (setting [6]), the IC50 was 3.78 µM. For the same molecule, in data set [2], the “MIC N. salmonicida” value was 16 µg/mL. Moreover, in data set [3], the “MIC N. seriolae” value is over 50 µg/mL.
